Results from US20040055024A1, “Conditional mutants of influenza virus M2 protein” (Medical Research Council, priority 1998, published 2004).

What was measured:
murine MEL cells = assay type: cell-based, mouse
[1] = test system: T-lymphocyte development (thymus, spleen); conditions: mouse, in vivo
thymic rudiments = test: Foetal thymic organ culture of transgenic embryos in the presence of rimantadine; assay type: cell-based, mouse; conditions: thymic lobes of 15 day embryos, 7 to 10 days culture with rimantadine, FACS
Excerpt: Opin. Immunol. 6:293-297.
Embryo sacs are removed from 15-day pregnant mice and the embryos released by cutting the umbilical cord. The embryos are stored on ice; non-embryo tissue is discarded. Any abnormal embryos, or asynchronous embryos as judged by size, are also discarded at this stage.
Foetal thymic lobes are dissected from the embryo and cultured on Costar filters (Coming) on RPMI medium. The filters are transferred to a new well of medium every day during the experiment.
At between 7 and 10 days, the thymic lobes are harvested, transferred to an eppendorf tube containing 200 μl medium, and the cells separated by teasing out mechanically. The cells are then analysed by FACS as described above.
In a second series of experiments, the thymic rudiments are cultured in the presence of rimantadine, and the cells analysed by FACS as described above.

SMILES: CC(N)C12CC3CC(CC(C3)C1)C2 (stereo not shown) [Rimantadine]
- cell kinetics after induction (murine MEL cells): preceded by two cell doublings before terminal differentiation and growth arrest
- cloning of M2(H37A) mutant in MEL cells (murine MEL cells): the mutant can be cloned
- rescue of the lack of T-cells by administration of rimantadine [1]: not rescuable
- rescue of T-cell production (thymic rudiments): able to rescue T-cell production in the thymic rudiments
